Assay results published in article PMC11003488 (Journal of Enzyme Inhibition and Medicinal Chemistry, 2023).

Tests used:
Assay type in all cases: cell-based
UACC-257 = test: NCI-60 SRB growth inhibition, one-dose and five-dose; conditions: Homo sapiens
NCI-H226 = test: as above; conditions: Homo sapiens
SR = test: as above; conditions: Homo sapiens
OVCAR-3 = test: as above; conditions: Homo sapiens
SK-MEL-2 = test: as above; conditions: Homo sapiens
CCRF-CEM = test: as above; conditions: Homo sapiens
SNB-19 = test: as above; conditions: Homo sapiens
PC-3 = test: as above; conditions: Homo sapiens
MALME-3M = test: as above; conditions: Homo sapiens
EKVX = test: as above; conditions: Homo sapiens
RPMI-8226 = test: as above; conditions: Homo sapiens
HL-60(TB) = test: cells; conditions: Homo sapiens
IGROV1 = test: NCI-60 SRB growth inhibition, one-dose and five-dose; conditions: Homo sapiens
SN12C = test: as above; conditions: Homo sapiens
T-47D = test: as above; conditions: Homo sapiens, T47D
CAKI-1 = test: as above; conditions: Homo sapiens
U251 = test: as above; conditions: Homo sapiens
RXF 393 = test: as above; conditions: Homo sapiens
NCI-H322M = test: as above; conditions: Homo sapiens
MOLT-4 = test: as above; conditions: Homo sapiens
OVCAR-4 = test: as above; conditions: Homo sapiens
MCF7 = test: as above; conditions: Homo sapiens
K-562 = test: as above; conditions: Homo sapiens
ACHN = test: as above; conditions: Homo sapiens
OVCAR-8 = test: as above; conditions: Homo sapiens
A498 = test: as above; conditions: Homo sapiens
HCT-15 = test: as above; conditions: Homo sapiens
HCC-2998 = test: as above; conditions: Homo sapiens
NCI-H23 = test: as above; conditions: Homo sapiens
SF-268 = test: as above; conditions: Homo sapiens
SK-MEL-28 = test: as above; conditions: Homo sapiens
KM12 = test: as above; conditions: Homo sapiens
NCI/ADR-RES = test: as above; conditions: Homo sapiens
LOX IMVI = test: as above; conditions: Homo sapiens
HS 578 T = test: as above; conditions: Homo sapiens
COLO 205 = test: as above; conditions: Homo sapiens
M14 = test: as above; conditions: Homo sapiens
HT29 = test: as above; conditions: Homo sapiens
SNB-75 = test: as above; conditions: Homo sapiens
786-0 = test: as above; conditions: Homo sapiens
MDA-MB-468 = test: as above; conditions: Homo sapiens
NCI-H522 = test: as above; conditions: Homo sapiens
MDA-MB-435 = test: as above; conditions: Homo sapiens
[1] = read-out: percent growth inhibition

For `COc1ccc(CNc2cccc(C(=O)/C=C/c3cccnc3)c2)cc1OC` [Compound 5c, (E)-1–(3-((3,4-dimethoxybenzyl)amino)phenyl)-3-(pyridin-3-yl)prop-2-en-1-one], the GI50 (UACC-257; UACC-257) was 12.5 µM, the inhibition at 10 µM (UACC-257; UACC-257, read-out: percent growth inhibition) was 34% and the GI50 (NCI-H226; NCI-H226) was 14.7 µM. The inhibition at 10 µM (NCI-H226; NCI-H226, read-out: percent growth inhibition) was 19.7%, the GI50 (SR) was 2.48 µM and the inhibition at 10 µM (SR; [1]) was 92%. It also gave a GI50 (OVCAR-3; OVCAR-3) of 2.74 µM, an inhibition at 10 µM (OVCAR-3; OVCAR-3, read-out: percent growth inhibition) of 107% and a GI50 (SK-MEL-2; SK-MEL-2) of 15.1 µM. It also gave an inhibition at 10 µM (SK-MEL-2; SK-MEL-2, read-out: percent growth inhibition) of 23.5%, a GI50 (CCRF-CEM) of 2.55 µM and an inhibition at 10 µM (CCRF-CEM; [1]) of 87.1%. The GI50 (SNB-19; SNB-19) was 9.49 µM, the inhibition at 10 µM (SNB-19; SNB-19, read-out: percent growth inhibition) was 41.3% and the GI50 (PC-3; PC-3) was 8 µM. The inhibition at 10 µM (PC-3; PC-3, read-out: percent growth inhibition) was 89%, the GI50 (MALME-3M) was 12.5 µM and the inhibition at 10 µM (MALME-3M; [1]) was 101%. It also gave a GI50 (EKVX) of 10.4 µM, an inhibition at 10 µM (EKVX; [1]) of 62.3% and a GI50 (RPMI-8226; RPMI-8226) of 2.14 µM. For the same compound, the inhibition at 10 µM (RPMI-8226; RPMI-8226, read-out: percent growth inhibition) was 99.7%, the GI50 (HL-60(TB); HL-60) was 2.78 µM and the inhibition at 10 µM (HL-60(TB); HL-60, read-out: percent growth inhibition) was 59.6%. The GI50 (IGROV1; IGROV-1) was 11 µM, the inhibition at 10 µM (IGROV1; IGROV-1, read-out: percent growth inhibition) was 84.3% and the GI50 (SN12C) was 11.8 µM. The inhibition at 10 µM (SN12C; [1]) was 83.7%, the GI50 (T-47D) was 10 µM and the inhibition at 10 µM (T-47D; [1]) was 105%. The GI50 (CAKI-1; CAKI-1) was 10.2 µM, the inhibition at 10 µM (CAKI-1; CAKI-1, read-out: percent growth inhibition) was 39.8% and the GI50 (U251; U-251) was 3.62 µM. The inhibition at 10 µM (U251; U-251, read-out: percent growth inhibition) was 124%, the GI50 (RXF 393; RXF 393) was 10.8 µM and the inhibition at 10 µM (RXF 393; RXF 393, read-out: percent growth inhibition) was 64.9%. The GI50 (NCI-H322M) was 14.8 µM, the inhibition at 10 µM (NCI-H322M; [1]) was 14.2% and the GI50 (MOLT-4; MOLT-4) was 2.95 µM. For the same compound, the inhibition at 10 µM (MOLT-4; MOLT-4, read-out: percent growth inhibition) was 38.9%, the GI50 (OVCAR-4; OVCAR-4) was 9.31 µM and the inhibition at 10 µM (OVCAR-4; OVCAR-4, read-out: percent growth inhibition) was 80.1%. The GI50 (MCF7; MCF7) was 1.89 µM, the inhibition at 10 µM (MCF7; MCF7, read-out: percent growth inhibition) was 186% and the GI50 (K-562; K562) was 2.71 µM. For the same compound, the inhibition at 10 µM (K-562; K562, read-out: percent growth inhibition) was 89%, the GI50 (ACHN) was 3.95 µM and the inhibition at 10 µM (ACHN; [1]) was 132%. For the same compound, the GI50 (OVCAR-8; OVCAR-8) was 4.01 µM, the inhibition at 10 µM (OVCAR-8; OVCAR-8, read-out: percent growth inhibition) was 85.1% and the GI50 (A498; A498) was 13.6 µM. It also gave an inhibition at 10 µM (A498; A498, read-out: percent growth inhibition) of 20%, a GI50 (HCT-15; HCT-15) of 2.01 µM and an inhibition at 10 µM (HCT-15; HCT-15, read-out: percent growth inhibition) of 134%. The GI50 (HCC-2998; HCC 2998) was 2.04 µM, the inhibition at 10 µM (HCC-2998; HCC 2998, read-out: percent growth inhibition) was 75.8% and the GI50 (NCI-H23; NCI-H23) was 1.99 µM. The inhibition at 10 µM (NCI-H23; NCI-H23, read-out: percent growth inhibition) was 73.6%, the GI50 (SF-268; SF-268) was 5.86 µM and the inhibition at 10 µM (SF-268; SF-268, read-out: percent growth inhibition) was 40.4%. For the same compound, the GI50 (SK-MEL-28; SK-MEL-28) was 5.22 µM, the inhibition at 10 µM (SK-MEL-28; SK-MEL-28, read-out: percent growth inhibition) was 98.4% and the GI50 (KM12; KM12) was 1.99 µM. The inhibition at 10 µM (KM12; KM12, read-out: percent growth inhibition) was 165%, the GI50 (NCI/ADR-RES) was 2.96 µM and the GI50 (LOX IMVI) was 1.76 µM. For the same compound, the inhibition at 10 µM (LOX IMVI; [1]) was 192%, the GI50 (HS 578 T) was 14.3 µM and the inhibition at 10 µM (HS 578 T; [1]) was 98.3%. For the same compound, the GI50 (COLO 205; COLO 205) was 16.5 µM, the inhibition at 10 µM (COLO 205; COLO 205, read-out: percent growth inhibition) was 84.7% and the GI50 (M14; M14) was 3.82 µM. For the same compound, the inhibition at 10 µM (M14; M14, read-out: percent growth inhibition) was 146%, the GI50 (HT29; HT-29) was 4.38 µM and the inhibition at 10 µM (HT29; HT-29, read-out: percent growth inhibition) was 178%. For the same compound, the GI50 (SNB-75; SNB-75) was 12.9 µM, the inhibition at 10 µM (SNB-75; SNB-75, read-out: percent growth inhibition) was 34.2% and the GI50 (786-0; 786-0) was 3.68 µM. For the same compound, the inhibition at 10 µM (786-0; 786-0, read-out: percent growth inhibition) was 133%, the GI50 (MDA-MB-468; MDA-MB-468) was 4.06 µM and the inhibition at 10 µM (MDA-MB-468; MDA-MB-468, read-out: percent growth inhibition) was 157%. The GI50 (NCI-H522; NCI-H522) was 13.6 µM, the inhibition at 10 µM (NCI-H522; NCI-H522, read-out: percent growth inhibition) was 138% and the GI50 (MDA-MB-435; MDA-MB-435) was 2.46 µM. The inhibition at 10 µM (MDA-MB-435; MDA-MB-435, read-out: percent growth inhibition) was 84.7%.
